The source of these data is patent US10188661B2, “Topical dosage regimen” (Topokine Therapeutics, Inc., priority 2014, dated 2019).

Data set [1] deals with lower lid steatoblepharon. Briefly: Randomized, double-masked, placebo-controlled trial of latanoprost ointment on lower eyelids (steatoblepharon). As to conditions: adults, lower eyelids once nightly, washed after 8-10 hours, 10 weeks. It is filed as in vivo, human. The method, then:
A randomized, double-masked, placebo-controlled trial of latanoprost ointment applied to lower eyelids was conducted with adult men and women with lower lid steatoblepharon, i.e., eye bags. Participants received a kit comprising a tube of latanoprost ointment and instructions to apply the topical composition to the lower eyelids once nightly at bedtime. Participants were instructed to wash the lower eyelids 8-10 hours after ointment application, so as to remove the ointment or residue thereof. Treatment continued for 10 weeks.

The conditions of data set [2]: humans; cited from earlier work.
In another data set the test system is excess submental fat. Briefly: Randomized, double-blind, placebo-controlled trial of topical latanoprost on the submental area. It is filed as in vivo, human. As to conditions: adults, submental skin 50 cm^2, applied at bedtime, washed after 8-10 hours, 42 days. On the procedure: A randomized, double-blind, placebo-controlled trial of topical latanoprost applied to the submental area was conducted with adult men and women with excess submental fat. In one cohort, participants were randomized to receive latanoprost in an ethanol-based composition, or a matching placebo composition. In another cohort, participants were randomized to receive latanoprost in a petroleum jelly-based composition, or a matching placebo composition. The composition was applied at bedtime to a controlled 50 cm^2 area of submental skin. Participants were instructed to wash the 50 cm^2 area after 8-10 hours, so as to remove the composition. Treatment continued for 42 days.

For another data set, the system named is subcutaneous fat. Briefly: 42-day once-daily topical latanoprost trial in minipigs: reduction of subcutaneous fat (microscopy, ImageJ). The class given is in vivo. To be noted: minipig, 42 days. The method, then: A randomized, placebo-controlled trial of topical latanoprost was conducted on male and female minipigs. Animals were randomized to no treatment, placebo (vehicle only), latanoprost 0.16%, or latanoprost 0.8% in an emulsion consisting essentially of water, poloxamer, lecithin, and isopropyl palmitate. The treatment was applied once daily to a 400 cm^2 area on the dorsum, with a semi-occlusive dressing. Treatment continued for 42 days.
Animals received a full panel of local and systemic safety assessments over the course of the study. Plasma toxicokinetics (TK) were assessed at various timepoints. After 42 days of treatment, animals were sacrificed. Samples of skin and subcutaneous fat were dissected from the treatment area in a controlled fashion and submitted for microscopic examination by a veterinary pathologist who was not informed of the compound tested or its therapeutic purpose.
Reduction of subcutaneous fat thickness was quantified using ImageJ software. In the high-dose group the mean reduction was 2.2 cubic centimeters of fat per 100 cm^2 of treated skin.

Data set [3] in a line: 91-day once-daily latanoprost ointment, plasma PK after last dose in minipigs. It is filed as in vivo. To be noted: both sexes, topical or ocular, 0.5 % w/w; minipig, topical (percutaneous) latanoprost; first-order fit of 24, 48, 72 h plasma values; read-out: terminal elimination half-life. The method, then: A pharmacokinetic (PK) experiment was conducted on male and female minipigs (n=6 per sex). Ointment comprising latanoprost 0.5% w/w in a vehicle comprising petroleum jelly and isopropyl myristate was applied once daily for 91 days to skin over 10% of body surface area. After the last topical application, plasma PK was assessed by sampling all animals through 24 hours, and in 2 animals per sex over for an additional 48 hours.
(See Sjoquist B et al., The pharmacokinetics of a new antiglaucoma drug, latanoprost, in the rabbit, Drug Metabol […] 1998; 26:745-754; and Sjoquist B and Stjernschantz J, Ocular and systemic pharmacokinetics of latanoprost in humans, Surv Ophthalmol 2002; 47:S6-S12).

For data set [4] the following is noted: cited from earlier work.

Like-named read-outs stand apart in the source and are kept apart here.

For orientation: half-life means how long it takes for the measured level to halve.

Turning to `CC(C)OC(=O)CCC/C=C\C[C@@H]1[C@@H](CC[C@@H](O)CCc2ccccc2)[C@H](O)C[C@@H]1O` [latanoprost], the tolerability result (in data set [1]; in the data set with excess submental fat) was “well tolerated” each time. Further, the half-life in plasma result in data set [2] is on record as “about 17 minutes”. Also, the “subcutaneous fat on microscopic examination” value in the data set on subcutaneous fat (0.16% and 0.8% once daily) is recorded as “Dose-dependent depletion of subcutaneous fat”. Besides, the “mean reduction of subcutaneous fat” value in the data set with subcutaneous fat (high-dose group) is 2.2 cubic centimeters of fat per 100 cm^2 of treated skin.

For the compound `O=C(O)CCC/C=C\C[C@@H]1[C@@H](CC[C@@H](O)CCc2ccccc2)[C@H](O)C[C@@H]1O` [latanoprost free acid], the half-life was 1080 to 1440 min in data set [3], 9 to 17 min in data set [4] (after intravenous administration), 17 to 85 min in data set [4] (after ocular administration) and 9 to 85 min in data set [4] (latanoprost administered intravenously or ophthalmically).
